pIC50: −log10 of the molar value.
What was measured:
[1] = test system: HIV-1 expression in ACH-2 cells; test: Induction of the HIV-1 expression in the ACH-2 cell line (p24); format: cell-based; conditions: 24 hours
Experimental: ACH2 cells were obtained through AIDS Research and Reference Reagent Program, Division of AIDS, National Institute of Allergy and Infectious Diseases, National Institutes of Health, Bethesda, Md. The cells were cultured in flasks, washed in RPMI and resuspended in RPMI/10% FCS at a concentration of 2×10^6 cells/mL. […] After 24 hours of incubation at 37° C./5% CO2, 50 μL of supernatant were removed for the cytotoxicity assay of the lactate dehydrogenase (LDH) and Triton-X-100 (0.5% vol/vol final concentration) were added to each culture. The p24 assays of the lysates were performed immediately.
p24 was measured using specific antibodies immobilized on magnetic beads as previously described [Nold M. F. et al. J. Immunol. […] The levels of p24 for each experiment without HDAC inhibitors were fixed at 1.0 and the increase values by the number of times for each experiment and each analogous were calculated.

HDAC1 = HDAC1 (Homo sapiens, UniProt Q13547); test: Inhibition of histone deacetylase isoforms, HDAC1
Experimental: (§1) Recombinant human enzymes were acquired from BPS Biosciences (CA, USA). Isoforms of Class I HDAC1, 2, 3; HDAC6, 10 of Class IIb and Class IV HDAC11 were tested using the Fluor-de-Lys fluorogenic synthetic substrate (Enzo Life Sciences, Plymouth Meeting, Pa.). […] Each inhibitor was dissolved in DMSO and then further diluted in an assay buffer. […] The assays were performed by pre-incubating each enzyme with the inhibitors for 15 minutes at 37° C. The reaction was started by adding the substrate at 37° C. and allowed to proceed for 60 minutes. The fluorescent signal was generated by adding 50 μL of a twice concentrated developer solution 2 (Enzo) containing trichostatin A 4 μM.

HDAC11 = target: T1, HDAC11 (Homo sapiens, UniProt Q96DB2); test: Inhibition of histone deacetylase isoforms, HDAC11
T1 sequence (Q96DB2 1-347): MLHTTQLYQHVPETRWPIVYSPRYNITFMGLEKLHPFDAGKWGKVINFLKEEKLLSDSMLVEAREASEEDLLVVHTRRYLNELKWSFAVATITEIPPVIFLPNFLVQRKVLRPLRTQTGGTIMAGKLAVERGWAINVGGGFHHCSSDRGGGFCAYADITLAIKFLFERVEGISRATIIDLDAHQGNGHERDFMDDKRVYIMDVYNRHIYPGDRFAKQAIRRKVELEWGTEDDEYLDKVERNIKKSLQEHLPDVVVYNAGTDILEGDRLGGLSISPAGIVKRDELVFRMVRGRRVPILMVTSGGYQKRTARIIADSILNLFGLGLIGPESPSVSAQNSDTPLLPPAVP
Experimental: as §1

HDAC4 = HDAC4 (Homo sapiens, UniProt P56524); test: Inhibition of histone deacetylase isoforms, HDAC4
Experimental: as §1

HDAC2 = HDAC2 (Homo sapiens, UniProt Q92769); test: Inhibition of histone deacetylase isoforms, HDAC2
Experimental: Recombinant human enzymes were acquired from BPS Biosciences (CA, USA). Isoforms of Class I HDAC1, 2, 3; HDAC6, 10 of Class IIb and Class IV HDAC11 were tested using the Fluor-de-Lys fluorogenic synthetic substrate (Enzo Life Sciences, Plymouth Meeting, Pa.). […] The recombinant human HDAC8 assay was performed using HDAC8 Fluorimetric Drug Discovery Kit (Enzo) according to the manufacturer instructions. Each inhibitor was dissolved in DMSO and then further diluted in an assay buffer. […] The assays were performed by pre-incubating each enzyme with the inhibitors for 15 minutes at 37° C. The reaction was started by adding the substrate at 37° C. and allowed to proceed for 60 minutes. The fluorescent signal was generated by adding 50 μL of a twice concentrated developer solution 2 (Enzo) containing trichostatin A 4 μM.

HDAC10 = target: T2, HDAC10 (Homo sapiens, UniProt Q969S8); test: Inhibition of histone deacetylase isoforms, HDAC10
T2 sequence (Q969S8 1-669): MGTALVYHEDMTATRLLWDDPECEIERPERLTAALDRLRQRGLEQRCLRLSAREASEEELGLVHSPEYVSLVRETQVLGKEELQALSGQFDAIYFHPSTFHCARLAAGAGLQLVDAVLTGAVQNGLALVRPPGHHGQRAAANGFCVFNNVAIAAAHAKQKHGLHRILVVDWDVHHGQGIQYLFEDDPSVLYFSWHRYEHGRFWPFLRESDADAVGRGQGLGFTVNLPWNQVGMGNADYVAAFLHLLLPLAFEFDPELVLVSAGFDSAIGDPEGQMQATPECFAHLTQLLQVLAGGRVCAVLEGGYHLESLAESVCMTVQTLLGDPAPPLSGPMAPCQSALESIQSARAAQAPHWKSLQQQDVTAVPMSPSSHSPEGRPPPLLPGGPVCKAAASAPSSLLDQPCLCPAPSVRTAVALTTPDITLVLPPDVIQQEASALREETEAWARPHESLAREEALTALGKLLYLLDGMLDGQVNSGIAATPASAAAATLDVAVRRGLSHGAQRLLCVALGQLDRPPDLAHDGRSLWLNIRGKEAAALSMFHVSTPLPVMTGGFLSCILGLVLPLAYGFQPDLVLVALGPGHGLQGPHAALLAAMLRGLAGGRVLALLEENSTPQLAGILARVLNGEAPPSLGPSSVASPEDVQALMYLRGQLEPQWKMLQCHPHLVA
Experimental: as §1

Chain of HDAC4 (P56524 whole entry, canonical isoform): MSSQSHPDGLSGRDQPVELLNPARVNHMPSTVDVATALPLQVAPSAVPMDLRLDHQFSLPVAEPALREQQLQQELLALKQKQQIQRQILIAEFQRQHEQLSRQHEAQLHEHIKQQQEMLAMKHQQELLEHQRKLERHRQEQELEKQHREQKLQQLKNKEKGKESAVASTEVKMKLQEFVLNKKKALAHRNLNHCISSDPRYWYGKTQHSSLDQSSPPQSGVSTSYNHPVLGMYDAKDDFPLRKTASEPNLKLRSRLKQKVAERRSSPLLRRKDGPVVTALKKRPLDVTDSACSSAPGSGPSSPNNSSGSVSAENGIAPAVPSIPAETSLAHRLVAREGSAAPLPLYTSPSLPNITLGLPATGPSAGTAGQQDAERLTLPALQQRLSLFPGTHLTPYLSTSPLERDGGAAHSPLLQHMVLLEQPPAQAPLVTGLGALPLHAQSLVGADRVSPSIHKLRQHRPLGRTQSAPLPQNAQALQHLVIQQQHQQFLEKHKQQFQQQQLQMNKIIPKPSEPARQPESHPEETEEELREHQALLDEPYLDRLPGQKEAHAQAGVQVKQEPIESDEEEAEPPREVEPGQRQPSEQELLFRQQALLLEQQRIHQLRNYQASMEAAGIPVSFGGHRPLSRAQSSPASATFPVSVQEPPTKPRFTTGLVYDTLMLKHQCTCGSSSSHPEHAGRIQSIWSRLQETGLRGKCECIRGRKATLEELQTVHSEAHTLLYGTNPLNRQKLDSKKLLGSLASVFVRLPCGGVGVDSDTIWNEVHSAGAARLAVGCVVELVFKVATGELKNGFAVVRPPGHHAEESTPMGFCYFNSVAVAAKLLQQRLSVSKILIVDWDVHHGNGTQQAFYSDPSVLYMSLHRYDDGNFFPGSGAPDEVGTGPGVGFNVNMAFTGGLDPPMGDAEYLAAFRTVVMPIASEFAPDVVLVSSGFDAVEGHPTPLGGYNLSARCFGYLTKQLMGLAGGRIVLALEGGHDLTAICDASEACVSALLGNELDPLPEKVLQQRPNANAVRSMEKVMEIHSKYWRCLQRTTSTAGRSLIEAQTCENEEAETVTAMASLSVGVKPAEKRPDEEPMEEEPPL
Chain of HDAC1 (Q13547 whole entry, canonical isoform): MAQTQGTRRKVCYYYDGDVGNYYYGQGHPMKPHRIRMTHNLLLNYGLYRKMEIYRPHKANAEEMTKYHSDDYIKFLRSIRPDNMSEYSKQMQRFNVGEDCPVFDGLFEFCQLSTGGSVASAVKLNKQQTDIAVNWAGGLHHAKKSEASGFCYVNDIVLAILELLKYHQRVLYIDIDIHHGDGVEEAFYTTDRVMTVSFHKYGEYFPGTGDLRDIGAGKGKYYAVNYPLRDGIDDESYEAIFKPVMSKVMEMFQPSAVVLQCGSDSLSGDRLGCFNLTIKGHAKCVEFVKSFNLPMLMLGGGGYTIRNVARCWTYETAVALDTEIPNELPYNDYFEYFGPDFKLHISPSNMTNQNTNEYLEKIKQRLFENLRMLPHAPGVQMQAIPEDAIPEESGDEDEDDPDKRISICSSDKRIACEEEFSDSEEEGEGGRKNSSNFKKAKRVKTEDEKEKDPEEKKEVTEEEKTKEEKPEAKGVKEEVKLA
Chain of HDAC2 (Q92769 whole entry, canonical isoform): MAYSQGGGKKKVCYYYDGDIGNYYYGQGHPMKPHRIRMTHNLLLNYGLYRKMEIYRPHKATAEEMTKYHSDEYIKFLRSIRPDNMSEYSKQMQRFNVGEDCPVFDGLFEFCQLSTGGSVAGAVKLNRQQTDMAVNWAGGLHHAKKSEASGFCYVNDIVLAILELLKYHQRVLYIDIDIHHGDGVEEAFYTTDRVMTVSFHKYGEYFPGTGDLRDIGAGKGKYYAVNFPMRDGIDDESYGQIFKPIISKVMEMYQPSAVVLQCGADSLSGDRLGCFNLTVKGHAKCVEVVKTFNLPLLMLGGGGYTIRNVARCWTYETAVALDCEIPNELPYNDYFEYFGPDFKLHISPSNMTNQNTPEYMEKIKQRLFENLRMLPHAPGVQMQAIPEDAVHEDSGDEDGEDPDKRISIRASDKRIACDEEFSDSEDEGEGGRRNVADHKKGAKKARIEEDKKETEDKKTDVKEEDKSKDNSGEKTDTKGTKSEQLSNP

SMILES | increase of the number of times in the level of p24 with respect to control ([1]; 31 nM) [times] | increase of the number of times in the level of p24 with respect to control ([1]; 63 nM) [times] | increase of the number of times in the level of p24 with respect to control ([1]; 125 nM) [times] | increase of the number of times in the level of p24 with respect to control ([1]; 250 nM) [times] | increase of the number of times in the level of p24 with respect to control ([1]; 250 nM, listed as compound g) [times] | pIC50 (HDAC1) | pIC50 (HDAC11) | pIC50 (HDAC4) | pIC50 (HDAC2) | pIC50 (HDAC10) | increase of the number of times in the level of p24 with respect to control ([1]; 250 nM, listed as compound t) [times]
O=C(NO)c1ccc(NC(=O)[C@H](Cc2ccc3ccccc3c2)NC(=O)c2ccccc2)cc1 [Compound g, 4-(2(S)-benzoylamino-3-naphtalen-2-yl-propionylamino)-N-hydroxy-benzamide] | 2 | 3 | 10 | 27 | 30 | 7.26 | 6.36 | 5.51 | 7.92 | 6.88 | 
O=C(NO)c1ccc(NC(=O)[C@H](Cc2ccc3ccccc3c2)NC(=O)c2ccc3c(c2)OCO3)cc1 [Compound t, benzo[1,3]dioxole-5-carboxylic acid [1(S)-(4-hydroxycarbamoyl-phenylcarbamoyl)-2-naphtalen-2-yl-ethy]-amide] | 1 | 2 | 10 | 33 |  | 7.15 | 6.47 | < 5.00 | 7.53 | 6.56 | 30

— patent US8637702B2, “Derivatives of N-hydroxybenzamide for treating HIV infections” (Italfarmaco S.p.A., priority 2009, dated 2014)
